Assay: Solubility of fluorescein in COH102 and COH206 buffer
Type: physicochemical
Conditions: 0.1% in COH102 and COH206 buffer
Protocol: General Procedures. Transient colorants were subjected to irradiation or other sterilization methods to determine if they would be stable. Standard chemical mixing, measuring, and analytical methods were utilized. Solubilities for effective amounts of transient colorants mixed in starting materials (and in the final compositions) were verified by routine mixing followed by analytical procedures.
Fluorescein was tested at 0.1% in COH102 and COH206 buffer and found to be soluble. To test in COSEAL®, one-fifth volume of COH102 buffer was replaced with 0.1% to 1.0% fluorescein in COH102 buffer, and the PEGs, COH102, and COH206 were added and dissolved. The fluorescence was noted to go away upon dissolving the mixed PEGs, and the color changed to a light yellow. However, when the solution was sprayed with COH206 buffer to make the reaction product COSEAL®, the fluorescence returned. The final fluorescein concentration was 0.01% to 0.1% by weight of the final composition.

O=C1OC2(c3ccc(O)cc3Oc3cc(O)ccc32)c2ccccc21 [Fluorescein, fluorescein]
solubility: soluble

— US7273896B2, “Compositions and methods of using a transient colorant” (Angiotech Pharmaceuticals (US), Inc., priority 2003, dated 2007)
